Data on 32 molecules can be found in US7259166B2, “Substituted-cycloalkyl and oxygenated-cycloalkyl glucokinase activators” (Hoffmann-La Roche Inc., priority 2002, dated 2007).

For the first data set, the system named is C57BL/6J mice. The experiment in a line: Glucokinase activator in vivo screen (blood glucose after oral dosing). The conditions noted are these: oral gavage 50 mg/kg, two hour fast, blood glucose at 1, 2, 4 and 6 hours post dose. As to the method:
Glucokinase Activator In Vivo Screen Protocol
C57BL/6J mice are orally dosed via gavage with Glucokinase (GK) activator at 50 mg/kg body weight following a two hour fasting period. Blood glucose determinations are made five times during the six hour post-dose study period.
Mice (n=6) are weighed and fasted for a two hour period prior to oral treatment.
Consider `CS(=O)(=O)c1ccc(C(CC2CCOCC2)C(=O)Nc2cnc(Br)cn2)cc1Cl` (stereo not shown) [Example 21, N-(5-Bromo-pyrazin-2-yl)-2-(3-chloro-4-methanesulfonyl-phenyl)-3-(tetrahydro-pyran-4-yl)-propionamide], for which the “glucokinase activator in vivo activity when administered orally (decrease in blood glucose compared to vehicle)” value was “excellent glucokinase activator in vivo activity”.
The same measure, in the same setting: under `CS(=O)(=O)c1ccc(C(CC2CCOCC2)C(=O)Nc2cnc(/C(N)=N/O)cn2)cc1Cl` (stereo not shown) [Example 23] stands “excellent glucokinase activator in vivo activity”; under `CS(=O)(=O)c1ccc(C(CC2CC/C(=N/O)C2)C(=O)Nc2cnc(Br)cn2)cc1Cl` (stereo not shown) [Example 52, N-(5-Bromo-pyrazin-2-yl)-2-(3-chloro-4-methanesulfonyl-phenyl)-3-(3-hydroxyimino-cyclopentyl)-propionamide], “excellent glucokinase activator in vivo activity”.
Regarding `CS(=O)(=O)c1ccc([C@@H](CC2CCC(=O)CC2)C(=O)Nc2cnc(Br)cn2)cc1Cl` [Example 60, N-(5-Bromo-pyrazin-2-yl)-2(R)-(3-chloro-4-methanesulfonyl-phenyl)-3-(4-oxo-cyclohexyl)-propionamide], the “glucokinase activator in vivo activity when administered orally (decrease in blood glucose compared to vehicle)” value was “excellent glucokinase activator in vivo activity”.
With `CS(=O)(=O)c1ccc(C(CC2CCC(=O)CC2)C(=O)Nc2cnc(Br)cn2)cc1Cl` (stereo not shown) [Example 59, N-(5-Bromo-pyrazin-2-yl)-2-(3-chloro-4-methanesulfonyl-phenyl)-3-(4-oxo-cyclohexyl)-propionamide], the “glucokinase activator in vivo activity when administered orally (decrease in blood glucose compared to vehicle)” value is “excellent glucokinase activator in vivo activity”.
Consider `CO/N=C1/CCC(CC(C(=O)Nc2cnccn2)c2ccc(S(C)(=O)=O)c(Cl)c2)C1` (stereo not shown) [Example 54, 2-(3-Chloro-4-methanesulfonyl-phenyl)-3-(3-methoxyimino-cyclopentyl)-N-pyrazin-2-yl-propionamide], for which the “glucokinase activator in vivo activity when administered orally (decrease in blood glucose compared to vehicle)” value was “excellent glucokinase activator in vivo activity”.
As to `CS(=O)(=O)c1ccc(C(CC2CCC(=O)C2)C(=O)Nc2cnc(Br)cn2)cc1Cl` (stereo not shown) [Example 49, N-(5-Bromo-pyrazin-2-yl)-2-(3-chloro-4-methanesulfonyl-phenyl)-3-(3-oxo-cyclopentyl)-propionamide], the “glucokinase activator in vivo activity when administered orally (decrease in blood glucose compared to vehicle)” value is recorded as “excellent glucokinase activator in vivo activity”.
For `CS(=O)(=O)c1ccc(C(CC2CCC(=NO)CC2)C(=O)Nc2cnc(Br)cn2)cc1Cl` (stereo not shown) [Example 66, N-(5-Bromo-pyrazin-2-yl)-2-(3-chloro-4-methanesulfonyl-phenyl)-3-(4-hydroxyimino-cyclohexyl)-propionamide], the “glucokinase activator in vivo activity when administered orally (decrease in blood glucose compared to vehicle)” value is listed as “excellent glucokinase activator in vivo activity”.
On to `CS(=O)(=O)c1ccc([C@@H](CC2CCC(=NO)CC2)C(=O)Nc2cnc(Cl)cn2)cc1Cl` (stereo partly drawn) [Example 68, 2(R)-(3-Chloro-4-methanesulfonyl-phenyl)-N-(5-chloro-pyrazin-2-yl)-3-(4-hydroxyimino-cyclohexyl)-propionamide], for which the “glucokinase activator in vivo activity when administered orally (decrease in blood glucose compared to vehicle)” value is “excellent glucokinase activator in vivo activity”.
Regarding `CS(=O)(=O)c1ccc([C@@H](CC2CCC(=NO)CC2)C(=O)Nc2cnc(Br)cn2)cc1Cl` (stereo partly drawn) [Example 67, N-(5-Bromo-pyrazin-2-yl)-2(R)-(3-chloro-4-methanesulfonyl-phenyl)-3-(4-hydroxyimino-cyclohexyl)-propionamide], the “glucokinase activator in vivo activity when administered orally (decrease in blood glucose compared to vehicle)” value is given as “excellent glucokinase activator in vivo activity”.
For the molecule `CO/N=C1/CCC(CC(C(=O)Nc2cnc(Br)cn2)c2ccc(S(C)(=O)=O)c(Cl)c2)C1` (stereo not shown) [Example 55, N-(5-Bromo-pyrazin-2-yl)-2-(3-chloro-4-methanesulfonyl-phenyl)-3-(3-methoxyimino-cyclopentyl)-propionamide], the “glucokinase activator in vivo activity when administered orally (decrease in blood glucose compared to vehicle)” value is recorded as “excellent glucokinase activator in vivo activity”.
With `CS(=O)(=O)c1ccc([C@@H](CC2CCC(=O)CC2)C(=O)Nc2cnc(Cl)cn2)cc1Cl` [Example 61, 2(R)-(3-Chloro-4-methanesulfonyl-phenyl)-N-(5-chloro-pyrazin-2-yl)-3-(4-oxo-cyclohexyl)-propionamide], the “glucokinase activator in vivo activity when administered orally (decrease in blood glucose compared to vehicle)” value is recorded as “excellent glucokinase activator in vivo activity”.

System in the next data set: not given
Experiment: not given
Conditions: not given
Turning to `CNC(=O)NC(=O)C(CC1CCCC1=O)c1ccc(Cl)c(Cl)c1` (stereo not shown) [Example 27, 1-[2-(3,4-Dichloro-phenyl)-3-(2-oxo-cyclopentyl)-propionyl]-3-methyl-urea], the melting point was in the range of 63 to 65 °C.
Regarding `CS(=O)(=O)c1ccc(C(CC2CCOCC2)C(=O)Nc2cnc(/C(N)=N/O)cn2)cc1Cl` (stereo not shown) [Example 23], the melting point is 137.2 to 140.5 °C.
With `CNC(=O)NC(=O)C(CC1CCC(=O)C1)c1ccc(Cl)c(Cl)c1` (stereo not shown) [Example 42, 1-[2-(3,4-Dichloro-phenyl)-3-(3-oxo-cyclopentyl)-propionyl]-3-methyl-urea], the melting point is 70 to 74 °C.
On to `CS(=O)(=O)c1ccc(C(CC2CC/C(=N/O)C2)C(=O)Nc2cnc(Br)cn2)cc1Cl` (stereo not shown) [Example 52, N-(5-Bromo-pyrazin-2-yl)-2-(3-chloro-4-methanesulfonyl-phenyl)-3-(3-hydroxyimino-cyclopentyl)-propionamide], for which the melting point lay in the range of 100 to 106 °C.
The molecule `CC1(O)CCC(CC(C(=O)Nc2cnccn2)c2ccc(S(C)(=O)=O)c(Cl)c2)C1` (stereo not shown) [Example 57, 2-(3-Chloro-4-methanesulfonyl-phenyl)-3-(3-hydroxy-3-methyl-cyclopentyl)-N-pyrazin-2-yl-propionamide] came in with a melting point of 78 to 84 °C.
As to `CS(=O)(=O)c1ccc(C(CC2CCC(=O)C2)C(=O)Nc2nccs2)cc1` (stereo not shown) [Example 44, 2-(4-Methanesulfonyl-phenyl)-3-(3-oxo-cyclopentyl)-N-thiazol-2-yl-propionamide], the melting point fell in the range of 94 to 97 °C.
On the same count and under the same terms, under `O=C(Nc1nccs1)C(CC1CCCC1O)c1ccc(Cl)c(Cl)c1` (stereo not shown) [Example 25, 2-(3,4-Dichloro-phenyl)-3-(2-hydroxy-cyclopentyl)-N-thiazol-2-yl-propionamide] stands 86 to 88 °C.
Molecule `O=C1CCC(CC(C(=O)Nc2nccs2)c2ccc(Cl)c(Cl)c2)C1` (stereo not shown) [Example 43, 2-(3,4-Dichloro-phenyl)-3-(3-oxo-cyclopentyl)-N-thiazol-2-yl-propionamide] displayed a melting point of 146 to 148 °C.
On the same count and under the same terms, under `O=C(Nc1nccs1)C(CC1CC/C(=N/O)C1)c1ccc(Cl)c(Cl)c1` (stereo not shown) [Example 50, 2-(3,4-Dichloro-phenyl)-3-(3-hydroxyimino-cyclopentyl)-N-thiazol-2-yl-propionamide] stands 98 to 101 °C; under `CC(=O)OC1CCC(CC(C(=O)Nc2nccs2)c2ccc(Cl)c(Cl)c2)C1` (stereo not shown) [Example 40, Acetic acid 3-[2-(3,4-dichloro-phenyl)-2-(thiazol-2-ylcarbamoyl)-ethyl]-cyclopentyl ester], 49 to 52 °C; under `CNC(=O)NC(=O)C(CC1CCCC1O)c1ccc(Cl)c(Cl)c1` (stereo not shown) [Example 24, 1-[2-(3,4-Dichloro-phenyl)-3-(2-hydroxy-cyclopentyl)-propionyl]-3-methyl-urea], 62 to 64 °C.
Still for that read-out and setting: under `CS(=O)(=O)c1ccc(C(CC2CC/C(=N/O)C2)C(=O)Nc2cnccn2)cc1Cl` (stereo not shown) [Example 51, 2-(3-Chloro-4-methanesulfonyl-phenyl)-3-(3-hydroxyimino-cyclopentyl)-N-pyrazin-2-yl-propionamide] stands 205 to 207 °C.
On the same count and under the same terms, under `CO/N=C1/CCC(CC(C(=O)Nc2cnccn2)c2ccc(S(C)(=O)=O)c(Cl)c2)C1` (stereo not shown) [Example 54, 2-(3-Chloro-4-methanesulfonyl-phenyl)-3-(3-methoxyimino-cyclopentyl)-N-pyrazin-2-yl-propionamide] stands 85 to 87 °C; under `CO/N=C1/CCC(CC(C(=O)Nc2nccs2)c2ccc(Cl)c(Cl)c2)C1` (stereo not shown) [Example 53, 2-(3,4-Dichloro-phenyl)-3-(3-methoxyimino-cyclopentyl)-N-thiazol-2-yl-propionamide], 69 to 72 °C.
The molecule `CS(=O)(=O)c1ccc(C(CC2CCCC2=O)C(=O)Nc2nccs2)cc1` (stereo not shown) [Example 29, 2-(4-Methanesulfonyl-phenyl)-3-(2-oxo-cyclopentyl)-N-thiazol-2-yl-propionamide] had a melting point of 228 to 230 °C.
In turn, `CS(=O)(=O)c1ccc(C(CC2CCC(=O)C2)C(=O)Nc2cnc(Br)cn2)cc1Cl` (stereo not shown) [Example 49, N-(5-Bromo-pyrazin-2-yl)-2-(3-chloro-4-methanesulfonyl-phenyl)-3-(3-oxo-cyclopentyl)-propionamide] had a melting point of 97 to 103 °C.
For the molecule `CS(=O)(=O)c1ccc(C(CC2CCCC2O)C(=O)Nc2nccs2)cc1` (stereo not shown) [Example 26, 3-(2-Hydroxy-cyclopentyl)-2-(4-methanesulfonyl-phenyl)-N-thiazol-2-yl-propionamide], the melting point was 205 to 206 °C.
Molecule `O=C1CCCC1CC(C(=O)Nc1nccs1)c1ccc(Cl)c(Cl)c1` (stereo not shown) [Example 28, 2-(3,4-Dichloro-phenyl)-3-(2-oxo-cyclopentyl)-N-thiazol-2-yl-propionamide] registered a melting point of 79 to 81 °C.
For the molecule `CNC(=O)NC(=O)C(CC1CCCCO1)c1ccc(Cl)c(Cl)c1` (stereo not shown) [Example 7, 1-[2-(3,4-Dichloro-phenyl)-3-(tetrahydro-pyran-2-yl)-propionyl]-3-methyl urea], the melting point was 172.8 to 174.2 °C.
The molecule `O=C(Nc1nccs1)C(CC1CCC(F)(F)C1)c1ccc(Cl)c(Cl)c1` (stereo not shown) [Example 56, 2-(3,4-Dichloro-phenyl)-3-(3,3-difluoro-cyclopentyl)-N-thiazol-2-yl-propionamide] gave a melting point of 154 to 156 °C.
Molecule `O=C(Nc1nccs1)C(CC1CCCO1)c1ccc(Cl)c(Cl)c1` (stereo not shown) [Example 2, 2-(3,4-Dichloro-phenyl)-3-(tetrahydro-furan-2-yl)-N-thiazol-2-yl-propionamide] showed a melting point of 69 to 71 °C.
Regarding `CO/N=C1/CCCC1CC(C(=O)Nc1cnccn1)c1ccc(S(C)(=O)=O)c(Cl)c1` (stereo not shown) [Example 33, 2-(3-Chloro-4-methanesulfonyl-phenyl)-3-(2-methoxyimino-cyclopentyl)-N-pyrazin-2-yl-propionamide], the melting point fell in the range of 74 to 76 °C.
The same measure, in the same setting: under `CS(=O)(=O)c1ccc(C(CC2CCC(O)C2)C(=O)Nc2nccs2)cc1` (stereo not shown) [Example 37, 3-(3-Hydroxy-cyclopentyl)-2-(4-methanesulfonyl-phenyl)-N-thiazol-2-yl-propionamide] stands 69 to 72 °C; under `CO/N=C1/CCC(CC(C(=O)Nc2cnc(Br)cn2)c2ccc(S(C)(=O)=O)c(Cl)c2)C1` (stereo not shown) [Example 55, N-(5-Bromo-pyrazin-2-yl)-2-(3-chloro-4-methanesulfonyl-phenyl)-3-(3-methoxyimino-cyclopentyl)-propionamide], 91 to 97 °C.
Consider `CNC(=O)NC(=O)C(CC1CCC(O)C1)c1ccc(Cl)c(Cl)c1` (stereo not shown) [Example 35, 1-[2-(3,4-Dichloro-phenyl)-3-(3-hydroxy-cyclopentyl)-propionyl]-3-methyl-urea], for which the melting point is 82 to 84 °C.

One may read the melting point as the temperature, or range, at which the solid turns liquid.
